# Measurements published in US8742068B2, “Treatment and prevention of inflammatory diseases and autoimmune diseases” (Universiteit Utrecht Holding B.V., priority 2007, dated 2014).
# Assays:
# [1] = test system: TNBS-induced colitis; experiment: TNBS colitis (Example 6); format: in vivo, BALB/c mice
# Procedure: Female BALB/c mice (Charles River-Germany), 10-12 weeks of age at start of the experiment, were either treated intragastrically or intranasally with full HSP70 [SEQ ID NO: 55] or HSP70 peptides (Mycobacterial HSP70 derived peptide “C1” shown in SEQ ID NO: 3 and mouse homologue peptide “mC1a” of SEQ ID NO: 4) prior to disease induction. Mice received 4×30 μg HSP70 intragastrically, in a period of 4 weeks. Stomach contents were neutralized by administering soybean trypsin inhibitor (SBTI) 10 minutes prior to oral HSP70 administration.
# Intranasal treatment was performed with 4×30 μg HSP70 or 4×(67 μg peptide C1 (Mycobacterial tub. HSP70 peptide 141-155, VLRIVNEPTAAALAY) mixed with 33 μg peptide mC1a (=mouse Grp75 (hspa9) peptide 216-230, […])), in a period of 1 week.
# Next, mice were sensitized by painting the shaved abdomen with 1 mg of TNBS in 100 μl 50% ethanol on two consecutive days, followed by a rectal challenge with 1 mg TNBS in 100 μl 40% ethanol, after 6 days. Mice were dissected 3 days later, and colonic inflammation was determined based on colon length, weight and morphology. Furthermore, cytokine production within colon and draining caudal lymph nodes (CLN) were determined.
# • A. Oral PBS, sensitization TNBS, challenge TNBS (control group) • B. Oral (full length) HSP70, sensitization TNBS, challenge TNBS (oral group) • C. […]
# [2] = test system: adjuvant arthritis; details: in vivo; cited from earlier work
# [3] = test system: DSS colitis; experiment: DSS colitis, peroral treatment (Prague study, 1st part, Example 3); format: in vivo, BALB/c mice
# Procedure: Fifteen conventional female Balb/c female mice (7 to 9 weeks old) were randomly separated in […] (five mice each). To evaluate the efficacy of per oral treatment, the antigens (full length Mycobacterial HSP70 protein) were administered together with 1 mg of Soybean trypsin inhibitor (SBTI, Sigma) dissolved in 50 μl of 0.15 M sodium bicarbonate, by gavage 4 times in one week interval. After one week the mice received 3% dextran sodium sulfate (DSS) in their drinking water continuously for up to 7 days. Colitis was evaluated on day 35 by a clinical activity score, by colon length and histological score.
# • treated: 100 μl of sterile PBS/SBTI intragastrically (Control group) Group B1 (HSP60+DSS): • treated: HSP60 30 μg/mouse in 100 μl of sterile PBS/SBTI (1:1) intragastrically Group C1 (HSP70+DSS): • treated: HSP70 30 μg/mouse in 100 μl of sterile PBS/SBTI (1:1) intragastrically Results
# [4] = 30 μg/mouse intragastrically with SBTI, 4 times before 3% DSS, 5 mice
# [5] = Multiple Range Tests, * p < 0.05
substance,measurement,setting,value
HSP70: full length Mycobacterial HSP70 protein (SEQ ID NO: 55),IL-10 responses in the caudal lymphnodes,"[1]; orally given, CD3/CD28 restimulation of draining lymph node cells",elevated IL-10 responses
same,effect on TNBS induced colitis,"[1]; prophylactically, HSP70 4x30 μg orally or intranasally, peptides 4x(67 μg C1 + 33 μg mC1a) intranasally",suppressive effect on TNBS induced colitis
same,development of adjuvant arthritis,[2],reduce the development of adjuvant arthritis
same,"Histological grade, Average",[3]; [4],1.4
same,"Weight change, Average",[3]; [4],−2.04
same,"Colon length, Average","[3]; 30 μg/mouse intragastrically with SBTI, 4 times in one week interval before 3% DSS, day 35, 5 mice",6.36
same,"Clinical state, Difference (contrast PBS minus treatment)",[3]; [5],*1.3332
same,"Colon length, Difference (contrast PBS minus treatment)",[3]; [5],−0.2
same,"Histological grade, Difference (contrast PBS minus treatment)",[3]; [5],*0.75
same,"Weight change, Difference (contrast PBS minus treatment)",[3]; [5],*−6.52
same,effect on colitis,"[3]; administered orally, prophylactically (prior to disease induction)",suppressive effect on colitis
same,"Clinical state, Average","[3]; total score of weight loss, stool consistency, bleeding divided by 3, 30 μg/mouse intragastrically, 5 mice",2.1334
